ChEMBL document CHEMBL1201862, “PubChem BioAssay data set” (2004)
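Step 1: Grow cells in 96-well plates. Step 2: Expose to compound for 48 hours at 5 concentrations. Step 3: Interpolate endpoints linearly; if unreached, use highest concentration. GI50 marks 50% less growth.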 Activity calls are given as the source filed them. Cut-off read from the data, not from the text of the source: active = GI50 up to about 1.1 µM and inactive = higher.

Key:
Test in all cases: growth of human tumour cells (NCI), 48 h
A549 = tested on: A549
ACHN = tested on: ACHN
COLO 205 = tested on: COLO 205
EKVX = tested on: EKVX
HCC 2998 = tested on: HCC 2998
HCT-116 = tested on: HCT-116
HCT-15 = tested on: HCT-15
K562 = tested on: K562
M19-MEL = tested on: M19-MEL
MOLT-4 = tested on: MOLT-4
NCI-H522 = tested on: NCI-H522
OVCAR-3 = tested on: OVCAR-3
RXF 393 = tested on: RXF 393
SK-MEL-2 = tested on: SK-MEL-2
SN12C = tested on: SN12C
SNB-19 = tested on: SNB-19
UACC-62 = tested on: UACC-62
MDA-MB-435 = tested on: MDA-MB-435
NCI/ADR-RES = tested on: NCI/ADR-RES
T47D = tested on: T47D

Compound | GI50 (A549) | GI50 (ACHN) | GI50 (COLO 205) | GI50 (EKVX) | GI50 (HCC 2998) | GI50 (HCT-116) | GI50 (HCT-15) [µM] | GI50 (K562) | GI50 (M19-MEL) | GI50 (MOLT-4) | GI50 (NCI-H522) | GI50 (OVCAR-3) | GI50 (RXF 393) | GI50 (SK-MEL-2) | GI50 (SN12C) | GI50 (SNB-19) | GI50 (UACC-62) | GI50 (MDA-MB-435) | GI50 (NCI/ADR-RES) | GI50 (T47D)
CC(=O)C=C1Nc2ccccc2N1 | > 100 µM (inactive) | > 100 µM (inactive) | > 100 µM (inactive) | > 100 µM (inactive) | > 100 µM (inactive) | > 100 µM (inactive) | > 100 | > 100 µM (inactive) | > 100 µM (inactive) | > 100 µM (inactive) | > 100 µM (inactive) | > 100 µM (inactive) | > 100 µM (inactive) | > 100 µM (inactive) | > 100 µM (inactive) | > 100 µM (inactive) | > 100 µM (inactive) |  |  | 
COc1cccc(C=O)c1C(=O)c1cc(O)ccc1O | > 100 µM (inactive) | 17.6 µM (inactive) | 18.1 µM (inactive) | 18.5 µM (inactive) | > 100 µM (inactive) | 20.1 µM (inactive) | 19.5 | > 10 µM (inactive) | 30.8 µM (inactive) | 3.13 µM (inactive) | > 10 µM (inactive) | 20.2 µM (inactive) | 17.9 µM (inactive) | > 100 µM (inactive) | > 84.1 µM (inactive) | > 100 µM (inactive) | 54.8 µM (inactive) |  |  | 
CCCCCCCCCCCCCP(=O)(OC)OC | 21.2 µM (inactive) | 18.5 µM (inactive) | 20 µM (inactive) | 19.4 µM (inactive) | 21.5 µM (inactive) | 19.6 µM (inactive) | 17.7 | 23.2 µM (inactive) | 19.3 µM (inactive) | 19.1 µM (inactive) | 13.6 µM (inactive) | 20.2 µM (inactive) | 31.8 µM (inactive) | 17.5 µM (inactive) | 20.2 µM (inactive) | 20.8 µM (inactive) | 17.9 µM (inactive) |  |  | 
Nc1ccc(C(=O)N/C(=C\c2cccc([N+](=O)[O-])c2)c2nc3ccccc3[nH]2)cc1 | 51.3 µM (inactive) | 40.6 µM (inactive) | > 100 µM (inactive) | > 88.1 µM (inactive) | > 100 µM (inactive) | 41.4 µM (inactive) | 76.6 | > 100 µM (inactive) | > 100 µM (inactive) | > 100 µM (inactive) | 36.6 µM (inactive) | 50.2 µM (inactive) | 24.9 µM (inactive) | 37.2 µM (inactive) | 83.9 µM (inactive) | 40.6 µM (inactive) | 46 µM (inactive) |  |  | 
CN(C)CC1CCCC(CN2CCCCC2)C1=O (stereo not drawn) | > 62.1 µM (inactive) | 6.58 µM (inactive) | 3.08 µM (inactive) | 12.5 µM (inactive) | 18.5 µM (inactive) | 3.01 µM (inactive) | 8.83 | 0.172 µM (active) | 18.8 µM (inactive) | 0.604 µM (active) | 0.0764 µM (active) | 8.63 µM (inactive) | 12.8 µM (inactive) | 15.7 µM (inactive) | 8.32 µM (inactive) | > 88.3 µM (inactive) | 18.3 µM (inactive) | 17.1 µM (inactive) | 3.89 µM (inactive) | 2.19 µM (inactive)
COC1C(O)=C2C(=O)O/C(C)=C/C=C/C=C/C=C\CC(c3ccccc3)NC(=O)\C=C/C=C\C=C\C=C\[C@@]2(C)[C@@H]1O (stereo partly drawn) | < 0.01 µM (active) | < 0.01 µM (active) | 0.0104 µM (active) | 0.0357 µM (active) |  | < 0.01 µM (active) | < 0.01 | < 0.01 µM (active) | 0.0538 µM (active) | < 0.0181 µM (active) | < 0.01 µM (active) | < 0.0189 µM (active) | 0.0128 µM (active) | < 0.0218 µM (active) | 0.0986 µM (active) | < 0.01 µM (active) | 0.0675 µM (active) | < 0.01 µM (active) | < 0.01 µM (active) | 0.0239 µM (active)
O=C(Cn1cc(I)c(C(=O)NCC(O)CO)n1)NCC(O)CO (stereo not drawn) | > 100 µM (inactive) | > 100 µM (inactive) | > 100 µM (inactive) | > 100 µM (inactive) | > 100 µM (inactive) | > 100 µM (inactive) | > 100 | > 100 µM (inactive) | > 100 µM (inactive) | > 100 µM (inactive) | > 100 µM (inactive) | > 100 µM (inactive) | > 100 µM (inactive) | > 100 µM (inactive) | > 100 µM (inactive) | > 100 µM (inactive) | > 100 µM (inactive) |  |  | 
COC(=O)C(=O)C1(CCC(C)=O)c2ccccc2-c2c(C)ccc(C)c21 (stereo not drawn) | 46.5 µM (inactive) | 46.7 µM (inactive) | 34.7 µM (inactive) | 31.4 µM (inactive) | 87.5 µM (inactive) | 35.7 µM (inactive) | 32.6 | 30.1 µM (inactive) | 64 µM (inactive) | 23.1 µM (inactive) | 33.3 µM (inactive) | 32 µM (inactive) | 32.1 µM (inactive) | 40.6 µM (inactive) | 69.2 µM (inactive) | > 100 µM (inactive) | 7.53 µM (inactive) |  |  | 
CCOC(=O)C(=O)/C=C(\C)Nc1c(NC2OCC(OC(C)=O)C(OC(C)=O)C2OC(C)=O)nc(SC)[nH]c1=O (stereo not drawn) | > 100 µM (inactive) | > 100 µM (inactive) | > 100 µM (inactive) | > 100 µM (inactive) | > 100 µM (inactive) | > 100 µM (inactive) | > 100 | > 100 µM (inactive) | > 100 µM (inactive) | > 100 µM (inactive) | > 100 µM (inactive) | > 100 µM (inactive) | > 100 µM (inactive) | > 100 µM (inactive) | > 100 µM (inactive) | > 100 µM (inactive) | > 100 µM (inactive) |  |  | 
